Tests used:
[1] = solubility as encountered during the assays; assay type: physicochemical
Text: The reduction at the later points in time is due to the natural loss of viability of the bacteria.

S. aureus ATCC 6538 = experiment: quantitative suspension assay of mono-substances; assay type: cell-based, Staphylococcus aureus; details: for Number of CFUs: initial cell load 9.5 × 10^4 CFU/ml
Procedure, shortened: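 Hydroxytyrosol, uvaol and erythrodiol were tested at 2 mg/ml stock plus dilutions to 0.125 mg/ml (solvent methanol or chloroform, in water). Oleocanthal was tested at 1–0.125 mg/ml and oleacin at 0.25 and 0.125 mg/ml in ethanol/water. Inocula were ~100,000 CFU/ml at 20–25° C, sampled from 0 min to 72 h and plated on blood agar.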

CC1(C)CC[C@]2(CO)CC[C@]3(C)C(=CC[C@@H]4[C@@]5(C)CC[C@H](O)C(C)(C)[C@@H]5CC[C@]43C)[C@@H]2C1 [erythrodiol]
solubility [1]: poor solubility
Number of CFUs (S. aureus ATCC 6538; 0.125 Ery/ml, t 0 min): >10^4 CFU/ml
Number of CFUs (S. aureus ATCC 6538; 0.125 Ery/ml, t 12 min): >10^4 CFU/ml
Number of CFUs (S. aureus ATCC 6538; 0.125 Ery/ml, t 30 min): >10^4 CFU/ml
Number of CFUs (S. aureus ATCC 6538; 0.125 Ery/ml, t 60 min): >10^4 CFU/ml
Number of CFUs (S. aureus ATCC 6538; 0.125 Ery/ml, t 24 h): >10^4 CFU/ml
Number of CFUs (S. aureus ATCC 6538; 0.125 Ery/ml, t 48 h): >10^4 CFU/ml
Number of CFUs (S. aureus ATCC 6538; 0.125 Ery/ml, t 72 h): >10^4 CFU/ml
Number of CFUs (S. aureus ATCC 6538; 0.25 Ery/ml, t 0 min): 2.8 × 10^4 CFU/ml
Number of CFUs (S. aureus ATCC 6538; 0.25 Ery/ml, t 12 min): 2.9 × 10^4 CFU/ml
Number of CFUs (S. aureus ATCC 6538; 0.25 Ery/ml, t 30 min): 2.0 × 10^4 CFU/ml
Number of CFUs (S. aureus ATCC 6538; 0.25 Ery/ml, t 60 min): 1.7 × 10^4 CFU/ml
Number of CFUs (S. aureus ATCC 6538; 0.25 Ery/ml, t 24 h): >10^4 CFU/ml
Number of CFUs (S. aureus ATCC 6538; 0.25 Ery/ml, t 48 h): >10^4 CFU/ml
Number of CFUs (S. aureus ATCC 6538; 0.25 Ery/ml, t 72 h): >10^4 CFU/ml
Number of CFUs (S. aureus ATCC 6538; 0.5 Ery/ml, t 0 min): 1.9 × 10^4 CFU/ml
Number of CFUs (S. aureus ATCC 6538; 0.5 Ery/ml, t 12 min): 2.0 × 10^4 CFU/ml
Number of CFUs (S. aureus ATCC 6538; 0.5 Ery/ml, t 30 min): 1.8 × 10^4 CFU/ml
Number of CFUs (S. aureus ATCC 6538; 0.5 Ery/ml, t 60 min): 1.0 × 10^4 CFU/ml
Number of CFUs (S. aureus ATCC 6538; 0.5 Ery/ml, t 24 h): >10^4 CFU/ml
Number of CFUs (S. aureus ATCC 6538; 0.5 Ery/ml, t 48 h): >10^4 CFU/ml
Number of CFUs (S. aureus ATCC 6538; 0.5 Ery/ml, t 72 h): >10^4 CFU/ml
Number of CFUs (S. aureus ATCC 6538; 1.0 Ery/ml, t 0 min): <100 CFU/ml
Number of CFUs (S. aureus ATCC 6538; 1.0 Ery/ml, t 12 min): <100 CFU/ml
Number of CFUs (S. aureus ATCC 6538; 1.0 Ery/ml, t 30 min): <100 CFU/ml
Number of CFUs (S. aureus ATCC 6538; 1.0 Ery/ml, t 60 min): <100 CFU/ml
Number of CFUs (S. aureus ATCC 6538; 1.0 Ery/ml, t 24 h): 1.7 × 10^4 CFU/ml
Number of CFUs (S. aureus ATCC 6538; 1.0 Ery/ml, t 48 h): 1.0 × 10^4 CFU/ml
Number of CFUs (S. aureus ATCC 6538; 1.0 Ery/ml, t 72 h): 8.8 × 10^3 CFU/ml
Number of CFUs (S. aureus ATCC 6538; 2.0 Ery/ml, t 0 min): <100 CFU/ml
Number of CFUs (S. aureus ATCC 6538; 2.0 Ery/ml, t 12 min): <100 CFU/ml
Number of CFUs (S. aureus ATCC 6538; 2.0 Ery/ml, t 30 min): <100 CFU/ml
Number of CFUs (S. aureus ATCC 6538; 2.0 Ery/ml, t 60 min): <100 CFU/ml
Number of CFUs (S. aureus ATCC 6538; 2.0 Ery/ml, t 24 h): 8.2 × 10^3 CFU/ml
Number of CFUs (S. aureus ATCC 6538; 2.0 Ery/ml, t 48 h): <100 CFU/ml
Number of CFUs (S. aureus ATCC 6538; 2.0 Ery/ml, t 72 h): <100 CFU/ml
antimicrobial effect, summary in words (S. aureus ATCC 6538; detection limit of the assay 100 CFU/ml): strong effect after incubation at concentrations of 2.0 Ery/ml
